Assay results taken from ChEMBL document CHEMBL1201862, “PubChem BioAssay data set” (2004).
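1) Cells in 96-well plates. 2) Compound, 48 h, 5 concentrations. 3) Linear interpolation between surrounding doses. 4) Unreached endpoint = highest concentration. GI50: concentration for 50% inhibition of growth.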 Active and inactive are the calls of the source. Cut-off read from the data, not from the text of the source: active = GI50 up to about 1.1 µM and inactive = higher.

Assays:
Experiment in all cases: NCI-60 cell line screen, 48 h
HOP-62 = system: HOP-62
HCC 2998 = system: HCC 2998
SNB-19 = system: SNB-19
SW-620 = system: SW-620
HL-60 = system: HL-60
SK-MEL-2 = system: SK-MEL-2
UACC-62 = system: UACC-62
NCI-H23 = system: NCI-H23
COLO 205 = system: COLO 205
HCT-15 = system: HCT-15
M14 = system: M14
OVCAR-3 = system: OVCAR-3
KM12 = system: KM12
SNB-75 = system: SNB-75
SK-MEL-28 = system: SK-MEL-28
OVCAR-4 = system: OVCAR-4
NCI-H460 = system: NCI-H460
RPMI-8226 = system: RPMI-8226
SF-268 = system: SF-268
RXF 393 = system: RXF 393

SMILES | GI50 (HOP-62) | GI50 (HCC 2998) | GI50 (SNB-19) | GI50 (SW-620) | GI50 (HL-60) | GI50 (SK-MEL-2) | GI50 (UACC-62) | GI50 (NCI-H23) | GI50 (COLO 205) | GI50 (HCT-15) [µM] | GI50 (M14) | GI50 (OVCAR-3) | GI50 (KM12) | GI50 (SNB-75) | GI50 (SK-MEL-28) | GI50 (OVCAR-4) | GI50 (NCI-H460) | GI50 (RPMI-8226) | GI50 (SF-268) | GI50 (RXF 393)
C=CC/C=C/C/C=C/CCCCCCCc1cccc(O)c1C(=O)O | 14.4 µM (inactive) | 58.7 µM (inactive) | 34.9 µM (inactive) | 45.9 µM (inactive) | > 100 µM (inactive) | 49 µM (inactive) | 31.1 µM (inactive) | 29.6 µM (inactive) | > 100 µM (inactive) | 48 | 82.8 µM (inactive) | 35.4 µM (inactive) | 64 µM (inactive) | 43.4 µM (inactive) | 32.7 µM (inactive) | 42.2 µM (inactive) | 36.1 µM (inactive) | 40.2 µM (inactive) | 24.3 µM (inactive) | 
Cn1ncc(=S)[nH]c1=S | > 100 µM (inactive) |  | > 100 µM (inactive) | > 100 µM (inactive) |  | > 100 µM (inactive) | > 100 µM (inactive) | > 100 µM (inactive) | > 100 µM (inactive) | > 100 | > 100 µM (inactive) | > 100 µM (inactive) |  | 97.7 µM (inactive) | > 100 µM (inactive) | > 100 µM (inactive) | > 100 µM (inactive) | > 100 µM (inactive) | > 100 µM (inactive) | > 100 µM (inactive)
Cc1ccccc1-c1nc2c(N)nc(N)nc2nc1N | 25.9 µM (inactive) | 25.2 µM (inactive) | 44.3 µM (inactive) | 4.86 µM (inactive) | > 100 µM (inactive) | > 100 µM (inactive) | 4.91 µM (inactive) | 4.95 µM (inactive) | 25.5 µM (inactive) | 4.15 | > 100 µM (inactive) | > 100 µM (inactive) | 29.8 µM (inactive) | 22.3 µM (inactive) | 67.9 µM (inactive) | > 100 µM (inactive) | 3.69 µM (inactive) | > 100 µM (inactive) | 8.38 µM (inactive) | 
O=C1CS(=O)(=O)C(c2cccc(Oc3ccccc3)c2)N1c1cc(Cl)ccc1Cl (stereo unspecified) |  | 18.8 µM (inactive) | 22.4 µM (inactive) | 34.4 µM (inactive) | 34.2 µM (inactive) | 14.4 µM (inactive) | 15.5 µM (inactive) | 29.1 µM (inactive) | 30.2 µM (inactive) | 24.9 | 20.4 µM (inactive) | 19 µM (inactive) | 17.8 µM (inactive) | 14.6 µM (inactive) | 26.5 µM (inactive) |  | 21.9 µM (inactive) |  | 23.1 µM (inactive) | 
CC(=O)NC1C(CO)O[C@@H]2OC(C)(C)O[C@H]12 (stereo partly specified) | > 100 µM (inactive) | > 100 µM (inactive) | > 100 µM (inactive) | > 100 µM (inactive) | > 100 µM (inactive) | > 100 µM (inactive) | > 100 µM (inactive) | > 100 µM (inactive) |  | > 100 | > 100 µM (inactive) | > 100 µM (inactive) | > 100 µM (inactive) | > 100 µM (inactive) | > 100 µM (inactive) | > 100 µM (inactive) | > 100 µM (inactive) | > 100 µM (inactive) | > 100 µM (inactive) | 
COc1ccc(CC2Cc3ccccc3CC(=O)N2)cc1OC (stereo unspecified) | > 100 µM (inactive) | > 100 µM (inactive) | > 100 µM (inactive) | > 100 µM (inactive) | 21.4 µM (inactive) | > 100 µM (inactive) | 48.2 µM (inactive) | 87.7 µM (inactive) | > 100 µM (inactive) | > 100 | 54 µM (inactive) | 97.3 µM (inactive) | 39.2 µM (inactive) | 48.2 µM (inactive) | > 100 µM (inactive) | 57 µM (inactive) | 42.8 µM (inactive) |  |  | 
